The record followed here is PubChem BioAssay AID1259407 (Chemical Carcinogenesis Research Information System (CCRIS), 2018).

Structures are written as SMILES. Active and inactive are the calls of the source. The rule behind the calls is not given here.

The subject of this data set is CCRIS mutagenicity, Ames/micronucleus/aberration tests. Description: CCRIS mutagenicity studies.
The mark [1] stands for this setting: Test System: AMES SALMONELLA TYPHIMURIUM, Strain/Indicator: TA98, Metabolic Activation: NONE, Method: PREINCUBATION
The mark [2] stands for this setting: Test System: AMES SALMONELLA TYPHIMURIUM, Strain/Indicator: TA100, Metabolic Activation: NONE, Method: PREINCUBATION
The mark [3] stands for this setting: Test System: AMES SALMONELLA TYPHIMURIUM, Strain/Indicator: TA1535, Metabolic Activation: NONE, Method: PREINCUBATION
[4] abbreviates: Test System: AMES SALMONELLA TYPHIMURIUM, Strain/Indicator: TA1537, Metabolic Activation: NONE, Method: PREINCUBATION
The mark [5] stands for this setting: Test System: AMES SALMONELLA TYPHIMURIUM, Strain/Indicator: TA98, Metabolic Activation: HAMSTER, LIVER, S-9, AROCLOR 1254 (10%), Method: PREINCUBATION
[6] abbreviates: Test System: AMES SALMONELLA TYPHIMURIUM, Strain/Indicator: TA98, Metabolic Activation: RAT, LIVER, S-9, AROCLOR 1254 (10%), Method: PREINCUBATION
The mark [7] stands for this setting: Test System: AMES SALMONELLA TYPHIMURIUM, Strain/Indicator: TA98, Metabolic Activation: RAT, LIVER, S-9, KANECHLOR 500, Method: PREINCUBATION
The mark [8] stands for this setting: Test System: AMES SALMONELLA TYPHIMURIUM, Strain/Indicator: TA100, Metabolic Activation: HAMSTER, LIVER, S-9, AROCLOR 1254 (10%), Method: PREINCUBATION
[9] abbreviates: Test System: AMES SALMONELLA TYPHIMURIUM, Strain/Indicator: TA100, Metabolic Activation: RAT, LIVER, S-9, AROCLOR 1254 (10%), Method: PREINCUBATION
Setting [10] is: Test System: AMES SALMONELLA TYPHIMURIUM, Strain/Indicator: TA100, Metabolic Activation: RAT, LIVER, S-9, KANECHLOR 500, Method: PREINCUBATION
[11] abbreviates: Test System: AMES SALMONELLA TYPHIMURIUM, Strain/Indicator: TA1535, Metabolic Activation: HAMSTER, LIVER, S-9, AROCLOR 1254 (10%), Method: PREINCUBATION
The mark [12] stands for this setting: Test System: AMES SALMONELLA TYPHIMURIUM, Strain/Indicator: TA1535, Metabolic Activation: RAT, LIVER, S-9, AROCLOR 1254 (10%), Method: PREINCUBATION
[13] abbreviates: Test System: AMES SALMONELLA TYPHIMURIUM, Strain/Indicator: TA1537, Metabolic Activation: HAMSTER, LIVER, S-9, AROCLOR 1254 (10%), Method: PREINCUBATION
Where [14] appears, read: Test System: AMES SALMONELLA TYPHIMURIUM, Strain/Indicator: TA1537, Metabolic Activation: RAT, LIVER, S-9, AROCLOR 1254 (10%), Method: PREINCUBATION

Take `Cc1oc(=O)oc1CN1CCN(c2cc3c(cc2F)c(=O)c(C(=O)O)c2n3C(C)S2)CC1` (stereo not given): the mutagenic call runs as follows: under setting [1], “inactive; negative”; (Test System: AMES SALMONELLA TYPHIMURIUM, Strain/Indicator: TA98, Metabolic Activation: RAT, LIVER, S-9, PHENOBARBITAL AND 5,6-BENZOFLAVONE, Method: PREINCUBATION) “inactive; negative”; under setting [2], “inactive; negative”; (Test System: AMES SALMONELLA TYPHIMURIUM, Strain/Indicator: TA100, Metabolic Activation: RAT, LIVER, S-9, PHENOBARBITAL AND 5,6-BENZOFLAVONE, Method: PREINCUBATION) “inactive; negative”; under setting [3], “inactive; negative”; (Test System: AMES SALMONELLA TYPHIMURIUM, Strain/Indicator: TA1535, Metabolic Activation: RAT, LIVER, S-9, PHENOBARBITAL AND 5,6-BENZOFLAVONE, Method: PREINCUBATION) “inactive; negative”. Moreover, the mutagenic call is “inactive; negative” under setting [4]; “inactive; negative” (Test System: AMES SALMONELLA TYPHIMURIUM, Strain/Indicator: TA1537, Metabolic Activation: RAT, LIVER, S-9, PHENOBARBITAL AND 5,6-BENZOFLAVONE, Method: PREINCUBATION); “inactive; negative” (Test System: E. COLI, Strain/Indicator: WP2 UVRA, Metabolic Activation: NONE, Method: PREINCUBATION); “inactive; negative” (Test System: E. COLI, Strain/Indicator: WP2 UVRA, Metabolic Activation: RAT, LIVER, S-9, PHENOBARBITAL AND 5,6-BENZOFLAVONE, Method: PREINCUBATION).
For `Cc1cccc(NS(=O)(=O)c2cccc3cccnc23)c1`, the mutagenic call is “inactive; negative” (Test System: AMES SALMONELLA TYPHIMURIUM, Strain/Indicator: TA98, Metabolic Activation: NONE, Method: STANDARD PLATE); “inactive; negative” (Test System: AMES SALMONELLA TYPHIMURIUM, Strain/Indicator: TA98, Metabolic Activation: RAT, LIVER, S-9, AROCLOR 1254, Method: STANDARD PLATE); “inactive; negative” (Test System: AMES SALMONELLA TYPHIMURIUM, Strain/Indicator: TA100, Metabolic Activation: NONE, Method: STANDARD PLATE); “inactive; negative” (Test System: AMES SALMONELLA TYPHIMURIUM, Strain/Indicator: TA100, Metabolic Activation: RAT, LIVER, S-9, AROCLOR 1254, Method: STANDARD PLATE); “inactive; negative” (Test System: AMES SALMONELLA TYPHIMURIUM, Strain/Indicator: TA1535, Metabolic Activation: NONE, Method: STANDARD PLATE); “inactive; negative” (Test System: AMES SALMONELLA TYPHIMURIUM, Strain/Indicator: TA1535, Metabolic Activation: RAT, LIVER, S-9, AROCLOR 1254, Method: STANDARD PLATE). Further, the mutagenic call by setting is: (Test System: AMES SALMONELLA TYPHIMURIUM, Strain/Indicator: TA1537, Metabolic Activation: NONE, Method: STANDARD PLATE) “inactive; negative”; (Test System: AMES SALMONELLA TYPHIMURIUM, Strain/Indicator: TA1537, Metabolic Activation: RAT, LIVER, S-9, AROCLOR 1254, Method: STANDARD PLATE) “inactive; negative”.
With `O=[N+]([O-])c1ccccc1CCl`, the mutagenic call reads like this: under setting [5], “inactive; negative”; under setting [6], “inactive; negative”; under setting [7], “active; positive”; under setting [8], “active; positive”; under setting [2], “active; positive”; under setting [9], “active; positive”. Further, the mutagenic call under setting [10] is “active; positive”; the mutagenic call under setting [11] was “active; positive”; the mutagenic call under setting [3] is “inactive; negative”; the mutagenic call under setting [12] was “active; positive”; the mutagenic call under setting [13] is “inactive; negative”; the mutagenic call under setting [4] is “inactive; negative”. For the same molecule, the mutagenic call is, setting by setting: under setting [14], “inactive; negative”; (Test System: AMES SALMONELLA TYPHIMURIUM, Strain/Indicator: TA1538, Metabolic Activation: NONE, Method: PREINCUBATION) “inactive; negative”.
Take `O=P(OC(CCl)CCl)(OC(CCl)CCl)OC(CCl)CCl`: the mutagenic call reads like this: (Test System: AMES SALMONELLA TYPHIMURIUM, Strain/Indicator: TA97, Metabolic Activation: HAMSTER, LIVER, S-9, AROCLOR 1254 (10%), Method: PREINCUBATION) “active; positive”; (Test System: AMES SALMONELLA TYPHIMURIUM, Strain/Indicator: TA97, Metabolic Activation: NONE, Method: PREINCUBATION) “inactive; negative”; (Test System: AMES SALMONELLA TYPHIMURIUM, Strain/Indicator: TA97, Metabolic Activation: RAT, LIVER, S-9, AROCLOR 1254 (10%), Method: PREINCUBATION) “inactive; negative”; under setting [5], “inactive; negative”; under setting [1], “inactive; negative”; under setting [6], “inactive; negative”. Moreover, the mutagenic call is, setting by setting: under setting [8], “active; positive”; under setting [2], “inactive; negative”; (Test System: AMES SALMONELLA TYPHIMURIUM, Strain/Indicator: TA100, Metabolic Activation: RAT, LIVER, HEPATOCYTES, PHENOBARBITAL, Method: PREINCUBATION) “inactive; negative”; (Test System: AMES SALMONELLA TYPHIMURIUM, Strain/Indicator: TA100, Metabolic Activation: RAT, LIVER, HEPATOCYTES, Method: PREINCUBATION) “active; positive”; (Test System: AMES SALMONELLA TYPHIMURIUM, Strain/Indicator: TA100, Metabolic Activation: RAT, LIVER, MICROSOMES, PHENOBARBITAL, Method: STANDARD PLATE) “active; positive”; under setting [9], “inactive; negative”. Further, the mutagenic call reads like this: (Test System: AMES SALMONELLA TYPHIMURIUM, Strain/Indicator: TA100, Metabolic Activation: RAT, LIVER, S-9, PHENOBARBITAL, Method: STANDARD PLATE) “active; positive”; (Test System: AMES SALMONELLA TYPHIMURIUM, Strain/Indicator: TA100, Metabolic Activation: RAT, LIVER, S-9, Method: STANDARD PLATE) “inactive; negative”; under setting [11], “active; positive”; under setting [3], “inactive; negative”; under setting [12], “active; positive”; under setting [13], “inactive; negative”. Moreover, the mutagenic call is “inactive; negative” under setting [4]; “inactive; negative” under setting [14]; “inactive; negative” (Test System: CHINESE HAMSTER V-79, Strain/Indicator: V-79/6-THIOGUANINE, Metabolic Activation: RAT, LIVER, MICROSOMES, PHENOBARBITAL); “inactive; negative” (Test System: UDS RODENT HEPATOCYTES, Strain/Indicator: THY INCORP (NON-S-PHASE), Metabolic Activation: RAT, LIVER, HEPATOCYTES, PHENOBARBITAL, Method: LIQUID SCINTILLATION COUNTING); “inactive; negative” (Test System: UDS RODENT HEPATOCYTES, Strain/Indicator: THY INCORP (NON-S-PHASE), Metabolic Activation: RAT, LIVER, HEPATOCYTES, Method: LIQUID SCINTILLATION COUNTING).
Take `Cc1cc2c(c3ccc4ccccc4c13)[C@@H]1O[C@@H]1[C@H](O)[C@H]2O`: the mutagenic call under setting [2] is “active; positive”.
Take `Cc1ccc(C)c([N+](=O)[O-])c1`: the mutagenic call reads like this: under setting [1], “inactive; negative”; under setting [7], “inactive; negative”; under setting [2], “inactive; negative”; under setting [10], “active; positive”.
